Laboratory results: ChEMBL document CHEMBL5226276, “Molecules with versatile biological activities bearing antipyrinyl nucleus as pharmacophore” (Eur J Med Chem, 2020)
Converted amounts (≈) assume the structure as drawn.

Legend:
[1] = Toxicity in brine shrimp assessed as lethal dose incubated for 24 hrs; conditions: artemia salina
[2] = test system: Mycobacterium tuberculosis; assay: Antimycobacterial activity against Mycobacterium tuberculosis H37Rv assessed as inhibition of bacterial growth incubated for 6 days by alamar blue dye based broth microdilution assay; type: functional; conditions: time 6 day
[3] = test system: Mycobacterium tuberculosis; assay: Antimycobacterial activity against Mycobacterium tuberculosis H37Rv assessed as inhibition of bacterial growth at 1.56 to 100 ug/ml incubated for 6 days by alamar blue dye based broth microdilution assay; type: functional; conditions: dose 1.56-100 µg/ml; time 6 day; at 1.56 to 100 µg/mL
[4] = test system: Macrophomina phaseolina; assay: Antimicrobial activity against Macrophomina phaseolina assessed as inhibition of microbial growth incubated for 48 hrs by well dilution assay based UV-Vis spectroscopy; type: functional
[5] = test system: Aspergillus niger; assay: Antimicrobial activity against Aspergillus niger assessed as inhibition of microbial growth incubated for 48 hrs by well dilution assay based UV-Vis spectroscopy; type: functional
[6] = test system: Proteus vulgaris; assay: Antimicrobial activity against Proteus vulgaris assessed as inhibition of microbial growth incubated for 24 hrs by well dilution assay based UV-Vis spectroscopy; type: functional
[7] = test system: Candida albicans; assay: Antimicrobial activity against Candida albicans assessed as inhibition of microbial growth incubated for 48 hrs by well dilution assay based UV-Vis spectroscopy; type: functional
[8] = test system: Pseudomonas aeruginosa; assay: Antimicrobial activity against Pseudomonas aeruginosa assessed as inhibition of microbial growth incubated for 24 hrs by well dilution assay based UV-Vis spectroscopy; type: functional
[9] = test system: Aspergillus flavus; assay: Antimicrobial activity against Aspergillus flavus assessed as inhibition of microbial growth incubated for 48 hrs by well dilution assay based UV-Vis spectroscopy; type: functional
[10] = test system: Staphylococcus aureus; assay: Antimicrobial activity against Staphylococcus aureus assessed as inhibition of microbial growth incubated for 24 hrs by well dilution assay based UV-Vis spectroscopy; type: functional
[11] = test system: Klebsiella pneumoniae; assay: Antimicrobial activity against Klebsiella pneumoniae assessed as inhibition of microbial growth incubated for 24 hrs by well dilution assay based UV-Vis spectroscopy; type: functional
[12] = test system: Rhizopus stolonifer; assay: Antimicrobial activity against Rhizopus stolonifer assessed as inhibition of microbial growth incubated for 48 hrs by well dilution assay based UV-Vis spectroscopy; type: functional
[13] = test system: Escherichia coli; assay: Antimicrobial activity against Escherichia coli assessed as inhibition of microbial growth incubated for 24 hrs by well dilution assay based UV-Vis spectroscopy; type: functional
[14] = Antioxidant activity assessed as DPPH radical scavenging activity by spectrophotometric assay; type: functional
[15] = Antioxidant activity assessed as DPPH radical scavenging activity incubated for 30 mins under dark condition; type: functional
[16] = Antioxidant activity assessed as DPPH radical scavenging activity; type: functional
[17] = Antioxidant activity assessed as DPPH radical scavenging activity incubated for 30 mins under dark condition by spectrophotometric assay; type: functional
[18] = test system: Salmonella typhimurium; assay: Antibacterial activity against Salmonella enterica subsp. enterica serovar Typhimurium assessed as inhibition of bacterial growth incubated for 24 hrs by filter paper disc diffusion assay; type: functional
[19] = test system: Bacillus cereus; assay: Antibacterial activity against Bacillus cereus assessed as inhibition of bacterial growth incubated for 24 hrs by filter paper disc diffusion assay; type: functional

Cc1c(/N=C/c2ccc(O)cc2O)c(=O)n(-c2ccccc2)n1C
LC50 [1]: 581 ppm

Cc1c(/N=C/c2ccccc2)/c(=N\Nc2nc(-c3ccc(O)cc3O)cs2)n(-c2ccccc2)n1C
MIC [2]: 0.648 10^-3micromol/ml
inhibition (INH) [3]: 90%

Cc1c(/N=C/c2ccccc2)/c(=N\Nc2nc(-c3ccccc3)cs2)n(-c2ccccc2)n1C
inhibition (INH) [3]: 90%

Cc1c(/N=C/c2ccco2)/c(=N\c2ccc(O)cc2)n(-c2ccccc2)n1C
MIC [4]: 6 µg/mL
MIC [5]: 6 µg/mL
MIC [6]: 16 µg/mL
MIC [7]: 6 µg/mL
MIC [8]: 16 µg/mL
MIC [9]: 6 µg/mL
MIC [10]: 16 µg/mL
MIC [11]: 16 µg/mL
MIC [12]: 6 µg/mL
MIC [13]: 16 µg/mL

Cc1c(/N=C/c2ccccc2Cl)/c(=N\Nc2nc(-c3ccccc3)cs2)n(-c2ccccc2)n1C
inhibition (INH) [3]: 90%

Cc1c(/N=C/c2ccc(O)cc2)/c(=N\Nc2nc(-c3ccccc3)cs2)n(-c2ccccc2)n1C
inhibition (INH) [3]: 90%

Cc1c(/N=C/c2ccc(Cl)cc2)c(=O)n(-c2ccccc2)n1C
LC50 [1]: 225 ppm

Cc1c(/N=C/c2cccc(Cl)c2)/c(=N\Nc2nc(-c3ccccc3)cs2)n(-c2ccccc2)n1C
inhibition (INH) [3]: 90%

COc1cc(-c2csc(N/N=c3\c(/N=C/c4ccccc4)c(C)n(C)n3-c3ccccc3)n2)ccc1O
inhibition (INH) [3]: 90%

COc1cccc(-c2csc(N/N=c3\c(/N=C/c4ccccc4)c(C)n(C)n3-c3ccccc3)n2)c1
inhibition (INH) [3]: 90%

COc1ccccc1/N=N/c1ccc(O)c2ncccc12
IC50 [14]: 72 µg/mL (≈ 258 µM)

Cc1c(/N=C/c2ccccc2)c(=O)n(-c2ccccc2)n1C
IC50 [15]: 31.3 µM

Cc1c(/N=C/c2ccco2)/c(=N\c2ccccc2)n(-c2ccccc2)n1C
MIC [4]: 6 µg/mL
MIC [5]: 6 µg/mL
MIC [6]: 16 µg/mL
MIC [7]: 6 µg/mL
MIC [8]: 16 µg/mL
MIC [9]: 6 µg/mL
MIC [10]: 16 µg/mL
MIC [11]: 16 µg/mL
MIC [12]: 6 µg/mL
MIC [13]: 16 µg/mL

Cc1cc(C(C)(C)C)c(O)c(C(C)(C)C)c1 [BUTYLATED HYDROXYTOLUENE]
IC50 [16]: 32 µg/mL (≈ 145 µM)
IC50 [14]: 31 µg/mL (≈ 141 µM)
IC50 [17]: 32 µg/mL (≈ 145 µM)

Cc1c(/N=C/c2cccc(F)c2)/c(=N\Nc2nc(-c3ccccc3)cs2)n(-c2ccccc2)n1C
inhibition (INH) [3]: 90%

Cc1c(/N=C/c2ccc(O)c(O)c2)c(=O)n(-c2ccccc2)n1C
LC50 [1]: 481 ppm

Cc1c(/N=C/c2ccco2)/c(=N\c2ccc([N+](=O)[O-])cc2)n(-c2ccccc2)n1C
MIC [4]: 6 µg/mL
MIC [5]: 6 µg/mL
MIC [6]: 16 µg/mL
MIC [7]: 6 µg/mL
MIC [8]: 16 µg/mL
MIC [9]: 6 µg/mL
MIC [10]: 16 µg/mL
MIC [11]: 16 µg/mL
MIC [12]: 6 µg/mL
MIC [13]: 16 µg/mL

O=C(O)c1cc(O)c(O)c(O)c1 [GALLIC ACID]
LC50 [1]: 78 ppm

Cc1c(/N=C/c2ccc(Cl)cc2)/c(=N\Nc2nc(-c3ccccc3)cs2)n(-c2ccccc2)n1C
inhibition (INH) [3]: 90%

Cc1c(/N=C/c2ccccc2)/c(=N\Nc2nc(-c3ccc(N(C)C)cc3)cs2)n(-c2ccccc2)n1C
inhibition (INH) [3]: 90%

Cc1c(/N=C/c2ccccc2)/c(=N\Nc2nc(-c3ccc(O)c(O)c3)cs2)n(-c2ccccc2)n1C
inhibition (INH) [3]: 90%

Cc1c(/N=C/c2ccccc2)/c(=N\Nc2nc(-c3ccc([N+](=O)[O-])cc3)cs2)n(-c2ccccc2)n1C
inhibition (INH) [3]: 90%

COc1ccccc1/C=N/c1c(C)n(C)n(-c2ccccc2)c1=O
MIC [18]: 50 µg/mL (≈ 156 µM)
MIC [19]: 12.5 µg/mL (≈ 38.9 µM)
